The subject of one assay is A549 cells. The assay can be described thus: MTS cytotoxicity assay, 72 hours, single agents and combinations with Aplidine. It counts as cell-based. Conditions: A549, 72 hours drug exposure, read-out: IC50 (Molar). The procedure:
(§1) Day before plating cells all cultures were fed with fresh, complete growth media. On the harvest (plating) day cells were counted by Trypan Blue exclusion staining method (basic cell culture). Cells were harvested and seeded in 96 well microtiter plates at 10,000 cells per well in 190 μL of media and incubated for 24 hours to allow the cells to attach before drug addition. Cells were treated with the drugs and the cytotoxic effect was measured by the MTS Assay (Tetrazolium), which is a colorimetric method for determining the number of viable cells. After the 72 hours of incubation with drug, 25 μL of MTS+PMS solution was added to each microtiter well and incubated for 4 hours at 37° C. Plates were then removed from incubator and placed on plate shaker for 5 minutes (covered with aluminium foil for protection from light). Optical densities were read at 490 nm on spectrophotometer plate reader.
(§2) The microtiter plates were incubated for 72 hrs, at 5% CO2 and 37° C. The cytotoxic effect was measured by MTS Assay. Optical densities read at 490 nm. Normalized data was plotted and interpreted as described. Data was analysed as: • 1. Prism (Graphpad) software program was used to normalized the data to control values (100%=cell growth in the absence of agent (drug); 0%=blank control). • 2. Data normalized were plotted as scatter plots.
(§3) Conversely, antagonism was concluded when inhibition was lower than both maxima. […] Statistical significance was assessed by performing a student's t-test on the inhibition at each dose ratio versus the inhibition at the maximum for each drug.
(§4) As a visual aid, response values were plotted on a scatter plot with dose ratios given on the x-axis and % response values on the y-axis. […] In cases where response values at the two endpoints were approximately equivalent, points lying above or below this predicted line of additivity could be interpreted as representing antagonistic or synergistic drug interaction, respectively.
A general note: Tetrazolium dyes change colour on reduction, which living cells bring about.

In another assay the test system is MOLT3 cells. Described as above. The format is cell-based. Conditions: read-out: IC50 (Molar). The procedure:
as §1, §2, §3, §4

Another assay deals with SKBR3 cells. Described as above. It counts as cell-based. As to conditions: read-out: IC50 (Molar). The procedure: as §1, §2, §3, §4
The subject of a further assay is MX1 cells. The description is as above. Conditions: MX1, 72 hours drug exposure, read-out: IC50 (Molar). The format is cell-based. As to the method: as §1, §2, §3, §4
The next assay deals with HL60 cells. The description is as above. The format is cell-based. As to conditions: read-out: IC50 (Molar). As to the method:
as §1, §2, §3, §4

The subject of a further assay is PC3 cells. The description is as above. It counts as cell-based. As to conditions: read-out: IC50 (Molar). The procedure:
as §1, §2, §3, §4

The test system of a further assay is HT29 cells. Described as above. It counts as cell-based. Conditions: read-out: IC50 (Molar). As to the method: as §1, §2, §3, §4
The subject of a further assay is U266B1 cell line. As to the kind of experiment: cells. It counts as cell-based. Conditions: 72 h, read-out: IC50 (Molar). As to the method:
(§5) These cell lines were cultured in RPMI1640 medium with 10% FBS and 1% L-Glutamine. Each cell line was plated in a 96 well plates at 20,000 cell per well.
(§6) Each serial dilution was paired with 4 different concentrations of Bortezomib or Melphalan.
(§7) The plates were incubated for 3 days at 37° C. and 5% CO2. The plates were read using the Promega MTS assay system with MTS being metabolized by living cells turning into formazan which is […] at 490 nm wavelength. This is an indirect measure of cell viability. These were analyzed using the Softmax Pro program which determines cell viability based percent of control wells. This IC50 data was then transferred into the CalcuSyn program for combination index analysis. CalcuSyn compares IC50 the values of the drugs alone with that of the drugs in combination using an algorithm to determine a combination index.

The next assay concerns RPMI-8226 cell line. As to the kind of experiment: cells. As to conditions: Homo sapiens, RPMI-8226, 72 h, read-out: IC50 (Molar). The format is cell-based. As to the method: as §5, §6, §7
The test system of assay [1] is RPMI 8226 human myeloma cells. The assay can be described thus: Antitumor efficacy against subcutaneous-implanted myeloma xenograft. The format is in vivo, male, SCID mice. Conditions: RPMI 8226 xenograft, median tumor weight; Aplidine 60 μg/kg/dose IP q1d × 9 day 18, 38; Bortezomib 0.35 mg/kg/dose IV. As to the method:
(§8) The animals were housed in microisolator cages, up to five per cage in a 12-hour light/dark cycle. Six-weeks-old male, SCID mice were acclimated in the laboratories for one week prior to the experiment.
Each mouse received 2×10^7 cells resuspended in 0.2 mL of Matrigel®. […] Cells were harvested after four passages in culture. The cells were removed from the flasks, placed in 50-mL centrifuge tubes and centrifuged at 1,000 rpm for 10 minutes in a refrigerated centrifuge. The cell pellets were resuspended in fresh complete medium. The cell count and viability were determined with a Beckman Coulter VI CELL XR cell counter and viability analyzer. The cell suspension was recentrifuged, and the cell pellet was resuspended in Matrigel® at a cell density of 1.0×10^8 cells/mL and placed on wet ice.
The day of tumor cell inoculation was designated as Day 0. […] Those animals selected with tumors in the proper size range were assigned to four treatment groups so that the median tumor weights on the first day of treatment were as close to each other as possible. […]
Animals were observed daily and clinical signed were noted. The s.c. tumors were measured and the animals were weighed twice weekly starting with the first day of treatment, Day 18 after tumor cell inoculation.

The subject of a further assay is RL human lymphoma cells. The assay can be described thus: Antitumor efficacy against subcutaneous-implanted lymphoma xenograft. It counts as in vivo. Conditions: median tumor weight, Aplidine 60 μg/kg/dose IP q1d × 9 day 15, 28, Rituximab 20 mg/kg/dose IP q3d × 2 day 15, 22, 29, 36.
From the text: The purpose of this study was to evaluate the antitumor efficacy of Aplidine when administered in combination with rituximab against subcutaneous-implanted RL human lymphoma cells in […], SCID mice.
as §8
Each mouse was inoculated s.c. near the right flank with RL human lymphoma cells from an in vitro cell culture using a 23-gauge needle. Each mouse received 1.0×10^7 cells resuspended in 0.2 mL of Matrigel®. […] The cell count was determined with a Coulter Model Z1 cell counter and viability was measured following propidium iodide staining and analyzed using a Beckman Coulter EPICS XL flow cytometer. […]
Animals were observed daily and clinical signed were noted. The s.c. tumors were measured and the animals were weighed twice weekly starting with the first day of treatment, Day 15. Tumor volume was determined by caliper measurements (mm) and using the formula for an ellipsoid sphere as described in Example 7.

The mark [2] stands for this setting: Homo sapiens, MOLT-3, MOLT3, 72 hours drug exposure.
Setting [3] is: Homo sapiens, SK-BR-3, SKBR3, 72 hours drug exposure.
Where [4] appears, read: Homo sapiens, HL-60, HL60, 72 hours drug exposure.
Setting [5] is: Homo sapiens, HT-29, HT29, 72 hours drug exposure.

Data on nine compounds can be found in US8258098B2, “Antitumoral treatments” (Pharma Mar, S.A., priority 2006, dated 2012).

Like-named read-outs stand apart in the source and are kept apart here. Some results are limits rather than exact numbers.

As to `Nc1ccn([C@@H]2O[C@H](CO)[C@@H](O)[C@@H]2O)c(=O)n1` [AraC, cytosine arabinoside], the 50% inhibitory concentration (IC50) (commonly the point on the concentration scale where inhibition reaches its midpoint) was greater than 100 µM in the assay with A549 cells; 220 nM in the assay with MOLT3 cells (MOLT3, 72 hours drug exposure); greater than 100 µM in the assay with SKBR3 cells (SKBR3, 72 hours drug exposure); greater than 100 µM in the assay on MX1 cells; 10 µM in the assay on HL60 cells (HL60, 72 hours drug exposure); greater than 100 µM in the assay on PC3 cells (PC3, 72 hours drug exposure). Further, the IC50 in the assay with HT29 cells (HT29, 72 hours drug exposure) is greater than 100 µM.

Consider `CC(C)C[C@H](NC(=O)[C@H](Cc1ccccc1)NC(=O)c1cnccn1)B(O)O` [Bortezomib], for which the half-maximal inhibitory concentration (IC50) with U266B1 cell line (U2661, MTS) was found to be 16.6 µM. The IC50 with RPMI-8226 cell line (RPMI8226, MTS) came out at 0.00229 µM. For the same compound, in assay [1], the “% T/C on day 27” value was found to be 70% and the “% T/C on day 48” value amounted to 67%.

Regarding `N[C@@H](Cc1ccc(N(CCCl)CCCl)cc1)C(=O)O` [Melphalan], the IC50 in the assay with U266B1 cell line is 0.00316 µM; in the assay with RPMI-8226 cell line, 16.1 µM.

On to `CCc1c2c(nc3ccc(O)cc13)-c1cc3c(c(=O)n1C2)COC(=O)[C@]3(O)CC` [SN38, 7-ethyl-10-hydroxycamptothecin], for which the IC50 in the assay with A549 cells is 1300 µM; in the assay on MOLT3 cells (MOLT3, 72 hours drug exposure), 1000 nM; with SKBR3 cells (SKBR3, 72 hours drug exposure) it was less than 1e-05 µM; in the assay on MX1 cells, 0.15 µM; in the assay with HL60 cells (HL60, 72 hours drug exposure), less than 1 µM; in the assay with PC3 cells (PC3, 72 hours drug exposure), 46 µM. In addition, the IC50 in the assay on HT29 cells (HT29, 72 hours drug exposure) was 0.12 µM.

In the case of `N.N.[Cl][Pt][Cl]` [cisplatin], the IC50 is 6 µM with A549 cells; 570 nM in the assay with MOLT3 cells (MOLT3, 72 hours drug exposure); 7 µM in the assay with SKBR3 cells (SKBR3, 72 hours drug exposure); 170 µM in the assay on MX1 cells; 12 µM in the assay with HL60 cells (HL60, 72 hours drug exposure); 87 µM with PC3 cells (PC3, 72 hours drug exposure). In the assay on HT29 cells (HT29, 72 hours drug exposure), the IC50 was 720 µM.

Regarding `COc1cccc2c1C(=O)c1c(O)c3c(c(O)c1C2=O)C[C@@](O)(C(=O)CO)C[C@@H]3O[C@H]1C[C@H](N)[C@H](O)[C@H](C)O1` [doxorubicin], the IC50 in the assay on A549 cells (Homo sapiens) was 1.3 µM; with MOLT3 cells (setting [2]) it was 6.9 nM; in the assay with SKBR3 cells (setting [3]), 0.29 µM; in the assay on MX1 cells (Homo sapiens), greater than 100 µM; in the assay with HL60 cells (setting [4]) it was greater than 100 µM; in the assay on PC3 cells (Homo sapiens, PC-3, PC3, 72 hours drug exposure), 11 µM. Also, the IC50 with HT29 cells (setting [5]) was greater than 100 µM.

For the compound `CC(=O)O[C@H]1C(=O)[C@@]2(C)[C@H]([C@H](OC(=O)c3ccccc3)[C@]3(O)C[C@H](OC(=O)[C@H](O)[C@@H](NC(=O)c4ccccc4)c4ccccc4)C(C)=C1C3(C)C)[C@]1(OC(C)=O)CO[C@@H]1C[C@@H]2O` [paclitaxel], the IC50 in the assay on A549 cells (Homo sapiens) was 0.013 µM; with MOLT3 cells (setting [2]) it was 77000 nM; with SKBR3 cells (setting [3]) it was greater than 100 µM; in the assay on MX1 cells (Homo sapiens) it was 9.4 µM; in the assay with HL60 cells (setting [4]), 0.016 µM; in the assay on HT29 cells (setting [5]) it was 0.005 µM.

As to “Rituximab: Rituxan® (Rituximab), standard agent”, in the assay on RL human lymphoma cells, the “% T/C on day 24” value is 95% and the “% T/C on day 38” value was determined as 102%.

For arsenic trioxide, the IC50 in the assay on A549 cells stood at 420 µM; in the assay on MOLT3 cells (MOLT3, 72 hours drug exposure), 3700 nM; with SKBR3 cells (SKBR3, 72 hours drug exposure) it was 100 µM; with MX1 cells, 97 µM; in the assay with HL60 cells (HL60, 72 hours drug exposure), 20 µM; in the assay with PC3 cells (PC3, 72 hours drug exposure), 1200 µM. For the same compound, the IC50 in the assay with HT29 cells (HT29, 72 hours drug exposure) stood at 80 µM.
